# Reference: the NIST ThermoML archive (doi:10.1021/je060257y)
# Numbers after ± are expanded uncertainties.
# Assay: molar heat capacity at constant pressure
# Conditions: 101.33 kPa, Crystal
molar heat capacity at constant pressure (298.15 K) [J/K/mol],molar heat capacity at constant pressure (303.15 K) [J/K/mol],molar heat capacity at constant pressure (308.15 K) [J/K/mol],molar heat capacity at constant pressure (313.15 K) [J/K/mol],molar heat capacity at constant pressure (318.15 K) [J/K/mol],molar heat capacity at constant pressure (323.15 K) [J/K/mol],molar heat capacity at constant pressure (328.15 K) [J/K/mol],molar heat capacity at constant pressure (333.15 K) [J/K/mol],molar heat capacity at constant pressure (338.15 K) [J/K/mol],molar heat capacity at constant pressure (343.15 K) [J/K/mol],Structure (SMILES)
314.5 ± 9.7,321.6 ± 10,329 ± 10,333.6 ± 10,341.1 ± 11,347.9 ± 11,353.3 ± 11,358.4 ± 11,363.2 ± 11,367.3 ± 11,Cn1c2c(c(=O)n(C)c1=O)CCCCC2
212.6 ± 7.2,213.5 ± 7.2,217.1 ± 7.3,218.5 ± 7.4,219.8 ± 7.4,223.4 ± 7.5,228.3 ± 7.6,229 ± 7.6,236.5 ± 7.8,239.6 ± 7.9,"Cc1cc(=O)n(C)c(=O)n1C [1,3,6-trimethyl-2,4(1H,3H)-pyrimidinedione]"
182.5 ± 5.7,185.4 ± 5.7,188.7 ± 5.8,191.2 ± 5.9,193.8 ± 6,196.4 ± 6.1,199.1 ± 6.2,201 ± 6.2,203.3 ± 6.3,206.8 ± 6.4,"Cn1ccc(=O)n(C)c1=O [1,3-dimethyl-2,4-(1H,3H)-pyrimidinedione]"
282.9 ± 8.8,291.2 ± 9,296.2 ± 9.2,305.8 ± 9.5,310.9 ± 9.6,319.8 ± 9.9,–,–,–,–,"Cn1c2c(c(=O)n(C)c1=O)CCCC2 [1,3-dimethyl-5,6,7,8-tetrahydroquinazoline-2,4(1H,3H)-dione]"
252.9 ± 7.8,258.1 ± 8,261.8 ± 8.1,–,–,–,–,–,–,–,"Cn1c2c(c(=O)n(C)c1=O)CCC2 [1,3-dimethyl-5,6-trimethyleneuracil]"
187.6 ± 5.8,190 ± 5.9,190.3 ± 5.9,194.1 ± 6,194.8 ± 6,198.5 ± 6.2,199.2 ± 6.2,202 ± 6.3,203 ± 6.3,205.2 ± 6.4,"Cc1cn(C)c(=O)[nH]c1=O [1,5-dimethyluracil]"
188.1 ± 7,194.3 ± 7.2,197.9 ± 7.2,202.6 ± 7.3,206.8 ± 7.4,211 ± 7.5,217.9 ± 7.7,225.1 ± 7.9,233.1 ± 8,239.8 ± 8.2,"Cc1cc(=O)[nH]c(=O)n1C [1,6-dimethyluracil]"
156.9 ± 4.9,167.2 ± 5.2,179.6 ± 5.6,190.9 ± 5.9,200.5 ± 6.2,211.1 ± 6.5,223 ± 6.9,235 ± 7.3,245.9 ± 7.6,256.1 ± 7.9,"Cn1ccc(=O)[nH]c1=O [1-methyl-2,4(1H,3H)-pyrimidinedione]"
244.5 ± 7.9,248.8 ± 8,254 ± 8.1,256.5 ± 8.2,260.9 ± 8.3,266.7 ± 8.4,271.2 ± 8.6,276.6 ± 8.7,282.3 ± 8.8,291.5 ± 9.1,"Cc1c(C)n(C)c(=O)n(C)c1=O [2,4(1H,3H)-pyrimidinedione, 1,3,5,6-tetramethyl-]"
302.7 ± 9.4,302.7 ± 9.4,302.8 ± 9.4,303 ± 9.4,306.2 ± 9.5,308.4 ± 9.6,–,–,–,–,"CCCc1cn(C)c(=O)n(C)c1=O [2,4(1H,3H)-pyrimidinedione, 1,3-dimethyl-5-propyl-]"
287.2 ± 10,288.8 ± 10,290.5 ± 10,292.2 ± 10,293.9 ± 10,303.9 ± 10,–,–,–,–,"CCCc1cc(=O)n(C)c(=O)n1C [2,4(1H,3H)-pyrimidinedione, 1,3-dimethyl-6-propyl-]"
358.1 ± 14,544.2 ± 22,–,–,–,–,–,–,–,–,"CCCCc1cn(C)c(=O)n(C)c1=O [2,4(1H,3H)-pyrimidinedione, 5-butyl-1,3-dimethyl-]"
241.1 ± 8.5,250.1 ± 8.7,256.5 ± 8.8,261 ± 8.9,264.3 ± 9,267.4 ± 9.1,270.7 ± 9.1,275.2 ± 9.3,281.7 ± 9.4,291.1 ± 9.6,"CCc1cn(C)c(=O)n(C)c1=O [2,4(1H,3H)-pyrimidinedione, 5-ethyl-1,3-dimethyl-]"
296.4 ± 9.2,297.9 ± 9.2,299.4 ± 9.3,300.9 ± 9.3,302.1 ± 9.4,305.3 ± 9.5,–,–,–,–,"CCCCc1cc(=O)n(C)c(=O)n1C [2,4(1H,3H)-pyrimidinedione, 6-butyl-1,3-dimethyl-]"
